This assay can be described thus: Antiproliferative activity against VEGF-stimulated HUVEC cells assessed as reduction in cell viability at 10 nM preincubated for 1 hr followed by addition of VEGF measured after 72 hrs by MTT assay. Conditions: Homo sapiens. The class given is functional.
With `COC1CCCC(C(=O)Nc2cccc(Oc3ccc4c(/C=C/c5ccccc5)n[nH]c4c3)c2)C1` (centres undefined), the inhibition (as a rule, the relative decrease from the control value, in per cent) at 0.01 µM turned out to be 91%.

As to `CC(C)c1ccccc1C(=O)Nc1cccc(Nc2ccc3c(/C=C/c4ccccc4)n[nH]c3c2)c1`, the inhibition at 0.01 µM is 79%.

For `O=C(Nc1cccc(Nc2ccc3c(/C=C/c4ccccc4)n[nH]c3c2)c1)C1C[C@H]2C[C@@H]1CCC2O` (some centres undefined), the inhibition at 0.01 µM is -9%.

On to `CC(=O)N1CCC[C@@H]1C(=O)Nc1cccc(Oc2ccc3c(/C=C/c4ccccc4)n[nH]c3c2)c1`, for which the inhibition at 0.01 µM is 20%.

With `CN1CCC=C(C(=O)Nc2cccc(C(=O)c3ccc4c(/C=C/c5ccccc5)n[nH]c4c3)c2)C1`, the inhibition at 0.01 µM worked out at 20%.

For `O=C(Nc1cccc(C(=O)c2ccc3c(/C=C/c4ccccc4)n[nH]c3c2)c1)C1=C[C@@H](O)[C@@H](O)[C@H](O)C1`, the inhibition at 0.01 µM is -20%.

With `Cc1nc(S)sc1CC(=O)Nc1cccc(Nc2ccc3c(/C=C/c4ccccc4)n[nH]c3c2)c1`, the inhibition at 0.01 µM amounted to 19%.

Turning to `O=C(c1cccc(NC(=O)c2cc(=O)[nH]c(=O)[nH]2)c1)c1ccc2c(/C=C/c3ccccc3)n[nH]c2c1`, the inhibition at 0.01 µM turned out to be 14%.

Regarding `O=C(Nc1cccc(Oc2ccc3c(/C=C/c4ccccc4)n[nH]c3c2)c1)C(O)c1ccccc1` (centres undefined), the inhibition at 0.01 µM worked out at 56%.

As to `CCNc1ccccc1C(=O)Nc1cccc(C(=O)c2ccc3c(/C=C/c4ccccc4)n[nH]c3c2)c1`, the inhibition at 0.01 µM came to 54%.

Turning to `COc1cccc(CC(=O)Nc2cccc(C(=O)c3ccc4c(/C=C/c5ccccc5)n[nH]c4c3)c2)c1`, the inhibition at 0.01 µM stood at 87%.

Consider `C[C@@H]1[C@H](C)[C@H](C)C[C@@H]1C(=O)Nc1cccc(Oc2ccc3c(/C=C/c4ccccc4)n[nH]c3c2)c1`, for which the inhibition at 0.01 µM was found to be 23%.

As to `Cn1cnc(CC(=O)Nc2cccc(Oc3ccc4c(/C=C/c5ccccc5)n[nH]c4c3)c2)c1`, the inhibition at 0.01 µM worked out at 20%.

Consider `COc1ccccc1/C=C/C(=O)Nc1cccc(Nc2ccc3c(/C=C/c4ccccc4)n[nH]c3c2)c1`, for which the inhibition at 0.01 µM was 10%.

With `CN1CSCCC1C(=O)Nc1cccc(Oc2ccc3c(/C=C/c4ccccc4)n[nH]c3c2)c1` (centres undefined), the inhibition at 0.01 µM worked out at 23%.

`O=C(CC1CC2CCC1C2)Nc1cccc(C(=O)c2ccc3c(/C=C/c4ccccc4)n[nH]c3c2)c1` (centres undefined): the inhibition at 0.01 µM was 75%.

For the compound `O=C(CC1=CCCCC1)Nc1cccc(Nc2ccc3c(/C=C/c4ccccc4)n[nH]c3c2)c1`, the inhibition at 0.01 µM stood at 81%.

Consider `CC(=O)N1CCCC1C(=O)Nc1cccc(C(=O)c2ccc3c(/C=C/c4ccccc4)n[nH]c3c2)c1` (centres undefined), for which the inhibition at 0.01 µM is 10%.

For `O=C(CCN1CCCCC1)Nc1cccc(C(=O)c2ccc3c(/C=C/c4ccccc4)n[nH]c3c2)c1`, the inhibition at 0.01 µM came to 2%.

On to `CC(C)=NOC(C)C(=O)Nc1cccc(Oc2ccc3c(/C=C/c4ccccc4)n[nH]c3c2)c1` (centres undefined), for which the inhibition at 0.01 µM came to 80%.

Consider `O=C(Cc1cccnc1)Nc1cccc(C(=O)c2ccc3c(/C=C/c4ccccc4)n[nH]c3c2)c1`, for which the inhibition at 0.01 µM stood at 21%.

As to `O=C1CCC(C(=O)Nc2cccc(Nc3ccc4c(/C=C/c5ccccc5)n[nH]c4c3)c2)CC1`, the inhibition at 0.01 µM is -7%.

As for `O=C(Nc1cccc(Oc2ccc3c(/C=C/c4ccccc4)n[nH]c3c2)c1)C1=C[C@@H](O)[C@@H](O)[C@H](O)C1`, the inhibition at 0.01 µM was determined as 25%.

Take `COc1ccccc1/C=C/C(=O)Nc1cccc(Oc2ccc3c(/C=C/c4ccccc4)n[nH]c3c2)c1`: the inhibition at 0.01 µM came out at 17%.

On to `Cc1ccc(CCC(=O)Nc2cccc(Oc3ccc4c(/C=C/c5ccccc5)n[nH]c4c3)c2)cc1`, for which the inhibition at 0.01 µM is 70%.

As to `COC1CCCC(C(=O)Nc2cccc(C(=O)c3ccc4c(/C=C/c5ccccc5)n[nH]c4c3)c2)C1` (centres undefined), the inhibition at 0.01 µM amounted to 30%.

For `Cn1cnc(CC(=O)Nc2cccc(Nc3ccc4c(/C=C/c5ccccc5)n[nH]c4c3)c2)c1`, the inhibition at 0.01 µM was -17%.

In the case of `O=C(Nc1cccc(Nc2ccc3c(/C=C/c4ccccc4)n[nH]c3c2)c1)C1CCCO1` (centres undefined), the inhibition at 0.01 µM turned out to be 23%.

Take `CC(C)=CC1C(C(=O)Nc2cccc(C(=O)c3ccc4c(/C=C/c5ccccc5)n[nH]c4c3)c2)C1(C)C` (centres undefined): the inhibition at 0.01 µM came to 3%.

For the origin of these results see ChEMBL document CHEMBL3880421, “Indazole compounds and pharmaceutical compositions for inhibiting protein kinases, and methods for their use” (2003).
